Measured values: patent publication US7767803B2, “Stabilized aptamers to PSMA and their use as prostate cancer therapeutics” (Archemix Corp., priority 2002, dated 2010)

B1: GGGAGGACGAUGCGGACCGAAAAAGACCUGAfCfUfUfCfUAfUAfCfUAAGfUfCfUAf CGfUfUfCfCfCAGAfCGAfCfUfCGfCfCfCGA (nucleic acid)
chain: GGGAGGACGAUGCGGACCGAAAAAGACCUGACUUCUAUACUAAGUCUACGUUCCCAGACGACUCGCCCGA
modifications: listed as RNA, chemistry not fully specified
notes: existing PSMA specific aptamer of rRfY composition, described in U.S. Ser. No. 09/978,969

Experiments:
[1] = system: metastatic, androgen independent prostate cancer; conditions: docetaxel in combination with prednisone, given every three weeks; control mitoxantrone and prednisone; cited from earlier work
PSMA NAALADase activity = PSMA NAALADase activity (Homo sapiens, UniProt Q04609); assay: NAALADase inhibition assay; assay type: biochemical; conditions: relative to parent aptamer
Procedure: These point mutant constructs were assessed for activity in terms of inhibition of PSMA NAALADase activity. The NAALADase assay was performed in 96 well format. PSMA aptamers were serially diluted in 1× reaction buffer (40 mM Tris-HCl, pH 7.4, 0.1 mM ZnSO4, 0.1 mg/mL BSA) in a standard 96 well plate to be tested at a final concentration range from 30 pM to 1 μM. The enzyme was prepared by diluting 30 μL of 100 nM PSMA into 8 mL of reaction buffer, and kept cool on ice. The substrate was prepared by adding 19 μl of NAAG [Glutamate-3,4-^3H], 50.8 Ci/mmol, 19.7 μM (Perkin-Elmer, Wellesley, Mass., NET1082) into 2.2 mL of reaction buffer.
Following preparation of all reagents, 4 μl of each serially diluted aptamer was added to a separate 96 well plate (the reaction plate). 76 μl of diluted enzyme was added to the corresponding wells containing aptamer. 80 μl of reaction buffer was added to one column of wells to serve as a background control. The diluted substrate and reaction plate were then moved to a room at 37° C. and allowed to equilibrate for 10 minutes. […]
To separate the cleavage products, […] and Glutamate, from the substrate, an AG 1-×8, 200-400 mesh, formate resin (BioRad, Hercules, Calif., # 140-1454) was used. […] The plate was sealed and read using a Packard Topcount Microplate Scintillation Counter. […]

LNCaP cells (PSMA+) = assay: LNCaP FACS assay with fluorescein-labeled aptamers; assay type: cell-based
Source text: The parent A9 aptamer sequence (SEQ ID NO 168) is predicted by the MFOLD algorithm implemented in the RNAStructure program v. 4.11 to fold into a partially mismatched hairpin that encompasses almost the entire molecule. A series of truncated constructs were designed, in which self-pairing nucleotides from the 5′- and 3′-ends were simultaneously removed, chemically synthesized using conventional solid-phase phosphoramidite-based synthesis, and tested. In the design of some of the truncated A9 aptamers, see e.g. ARC591, additional bases were added to the 3′ and 5′ ends of the truncate, where the bases added to the 5′ end were capable of forming Watson-Crick base pairs with those added to the 3′ end thereby increasing the length of stem structure. Truncated aptamers were 5′-labeled with fluorescein and tested for binding in to LNCaP cells (PSMA+) in the FACS assay described below. PC-3 cells (PSMA−) were used as a control cell line. The sequences of the truncated A9 aptamers designed are listed below in Table 6 below.
To accomplish 5′-fluorescein labeling, aptamers were synthesized with a 5′-amine and then modified post-solid phase synthesis. The required aptamer was dissolved to a concentration of ˜10-50 mg/mL in 25 mM phosphate buffer, pH 7.4. The small molecule, NHS ester of fluorescein, was dissolved to a concentration of 10 mg/mL in DMSO. 1.5 Molar equivalents were added to the aptamer and the solution vortexed for ˜15 seconds. The reaction was allowed to proceed in the dark at room temperature for 1 hour and then a 5 μL aliquot was withdrawn, diluted with water and analyzed by HPLC. Additional equivalents of the small molecule were added until the reaction was complete by HPLC. Excess small molecules were removed by gel filtration.
To prepare aptamers for the FACS assay, PSMA aptamers were serially diluted (0-1 uM) in FACS buffer (1×DPBS w/Ca^++/Mg^++ (Gibco, Carlsbad, Calif.) supplemented with 10 mg/mL salmon sperm DNA & 0.2% Na Azide), in a V-bottom 96 well plate, at the concentrations to be tested. LNCaP and PC-3 cells (ATCC, Manassas, Va.) were harvested with trypsin, and 200,000 cells/well were counted, washed once with 1×DPBS (with Ca^++ and Mg^++) and resuspended in 200 μl of FACS Buffer. The 200 μl of cells in FACS buffer were added to individual wells of a new 96 well plate, pelleted by centrifugation (1300 rpm for 5 minutes), and resuspended in 100 μl of the appropriate concentration of diluted aptamer. FACS buffer, c-PSMA antibody (3C6) (Northwest Biotherapeutics, Bothell, Wash., Cat #: 60-5002) and an irrelevant fluorescein isothiocyanate (“FITC”) mouse IgG1 isotype control antibody (BD Pharmingen, San Diego, Calif., Cat#: 554679) were used as controls. The wells of aptamer/cell mixture were incubated at room temperature for 20-30 minutes. […]

PC-3 cells (PSMA−) = assay: FACS assay on control cell line; assay type: cell-based
Source text: The parent A9 aptamer sequence (SEQ ID NO 168) is predicted by the MFOLD algorithm implemented in the RNAStructure program v. 4.11 to fold into a partially mismatched hairpin that encompasses almost the entire molecule. A series of truncated constructs were designed, in which self-pairing nucleotides from the 5′- and 3′-ends were simultaneously removed, chemically synthesized using conventional solid-phase phosphoramidite-based synthesis, and tested. […]
To prepare aptamers for the FACS assay, PSMA aptamers were serially diluted (0-1 uM) in FACS buffer (1×DPBS w/Ca^++/Mg^++ (Gibco, Carlsbad, Calif.) supplemented with 10 mg/mL salmon sperm DNA & 0.2% Na Azide), in a V-bottom 96 well plate, at the concentrations to be tested. LNCaP and PC-3 cells (ATCC, Manassas, Va.) were harvested with trypsin, and 200,000 cells/well were counted, washed once with 1×DPBS (with Ca^++ and Mg^++) and resuspended in 200 μl of FACS Buffer. […]
Cell samples were analyzed on a FACS Scan machine (Becton Dickinson, San Jose, Calif.) under the following parameters: FSC/SSC, FL-1/FSC, FL-3/FSC. The unstained and/or isotype controls were used to establish gating parameters, and the data was analyzed using Cell Quest Pro software version 5.1.1 (Becton Dickinson Immunocytometry Systems, San Jose, Calif.).

Sequence of PSMA NAALADase activity (Q04609 with tags, fused parts or gaps limits assumed): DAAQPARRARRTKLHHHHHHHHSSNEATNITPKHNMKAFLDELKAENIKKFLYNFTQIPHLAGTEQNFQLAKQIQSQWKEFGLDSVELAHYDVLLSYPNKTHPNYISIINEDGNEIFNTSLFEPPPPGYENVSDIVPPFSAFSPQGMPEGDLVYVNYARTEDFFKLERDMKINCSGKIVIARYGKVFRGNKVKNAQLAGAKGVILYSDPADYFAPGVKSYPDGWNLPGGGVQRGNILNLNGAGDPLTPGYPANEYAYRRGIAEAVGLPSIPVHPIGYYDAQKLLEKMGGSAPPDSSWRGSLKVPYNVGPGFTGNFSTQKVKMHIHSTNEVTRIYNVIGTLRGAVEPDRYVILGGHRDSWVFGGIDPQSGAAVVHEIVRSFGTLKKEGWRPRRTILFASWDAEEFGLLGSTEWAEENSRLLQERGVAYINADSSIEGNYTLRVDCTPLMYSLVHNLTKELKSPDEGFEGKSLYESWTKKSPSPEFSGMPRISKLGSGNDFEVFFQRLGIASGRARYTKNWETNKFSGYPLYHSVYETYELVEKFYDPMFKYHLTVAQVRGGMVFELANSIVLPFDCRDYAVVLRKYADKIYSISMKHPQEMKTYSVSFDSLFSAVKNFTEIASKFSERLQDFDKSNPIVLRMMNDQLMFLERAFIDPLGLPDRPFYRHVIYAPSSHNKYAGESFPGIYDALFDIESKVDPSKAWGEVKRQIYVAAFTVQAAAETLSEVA

Molecule | survival advantage over the control group [1] | NAALADase inhibition activity (in words) (PSMA NAALADase activity) | binding to LNCaP (PSMA+) cells by FACS (in words) (LNCaP cells (PSMA+)) | binding to PC-3 (PSMA−) cells by FACS (in words) (PC-3 cells (PSMA−))
CC(=O)O[C@@]12CO[C@@H]1C[C@H](O)[C@@]1(C)C(=O)[C@H](O)C3=C(C)[C@@H](OC(=O)[C@H](O)[C@@H](NC(=O)OC(C)(C)C)c4ccccc4)C[C@@](O)([C@@H](OC(=O)c4ccccc4)[C@H]21)C3(C)C [Taxotere, docetaxel] | approximately 2.5 months |  |  | 
GGAGGACCGAAAAAGACCUGACUUCUAUACUAAGUCUACGUUCCUCCA (2'-fluoro pyrimidines, further chemistry not given here) [ARC591, 48-nt minimer of A9, 2′-OH purines, 2′-fluoro pyrimidines] |  | retained full functional activity | retained full functional activity | 
B1 |  |  | binding to LNCaP (PSMA+) cells | not to PC-3 (PSMA−) cells
